Measurements reported in US5462927A, “Peptides aiding nerve regeneration” (The Administrators of the Tulane Educational Fund, priority 1992, dated 1995).
Like-named read-outs stand apart in the source and are kept apart here. Square brackets hold non-standard residues; d marks the D form. Peptide text beside a SMILES is read from it.

Legend:
[1] = tested on: sectioned sciatic nerve; common extensor muscle of the finger; assay: Muscle weight after sciatic nerve section; format: in vivo, rat; conditions: for Muscle weight Normalized to Mean Animal Weight: 35d. p.o.
[2] = tested on: sciatic nerve after transection and end-to-end suture; assay: Morphometry after section and suture of sciatic nerve; format: in vivo, rabbit
[3] = tested on: crushed peroneal nerve; endplates of the EDL; assay: Endplate morphology of EDL muscle after peroneal nerve crush (silver-cholinesterase stain); format: in vivo, rat
Protocol: The effect of BIM-22015 regeneration of the crushed peroneal nerve in the rat was assessed using both morphological and physiological studies, as follows. Both locomotor pattern and endplate morphology during the early stages of crushed nerve regeneration were assessed after treatment with BIM-220150 Adult Sprague-Dawley male rats (Taconic Farms) were maintained at 25° C. on a 12 hour light and a 12 hour dark cycle and were supplied with standard rat chow and water ad lib. All surgery was performed under anesthesia with 8% chlorohydrate (0.6 ml/100 g I.P.). Denervation was accomplished using a #5 Dumont forceps with a uniformly filed tip to crush the peroneal nerve. This crush produced a 1 mm wide lesion just proximal to the EDL (extention digitarum longus) muscle. The wound was closed with surgical staples. Following surgery, the animal was immediately administered saline or BIM-22015 in one of the following dosages: (1) 0.9% saline, (2) 10.0 ug BIM-22015, (3) 5.0 ug BIM-22015, (3) 1.0 ug BIM-22015, or (4) 0.1 ug BIM-22015 (per animal). Administration continued once every 48 hours for 5 days; on day 5, the rats were killed and tissues taken for morphological analysis. All injections and surgeries occurred between 10:00 and 12:00 noon.
Morphological studies of crushed nerve regeneration were performed as follows. On day 5, the rats were anesthetized with 8% chlorohydrate (0.6 ml/100 g IP) before surgery. The animal was placed ventral side down and a skin incision was made on the hindlimb from the lateral epicondyle of the femur to the lateral malleolus in the ankle. The extensor digitorium longus muscle (EDL) was then carefully exposed from its surrounding connective tissue and extreme care taken to preserve the blood supply. The EDL is a heterogenous muscle consisting of both fast white muscle fibers and slow red muscle fibers. It is classified as a fast muscle based upon its isometric twitch parameters. The origin of the EDL is the epicondyle of the femur to the distal tendon which divides into four parts with insertions into the third phalange base of the second to the fifth digits. It is innervated by the peroneal nerve and its blood is supplied by the anterior tibial artery. The muscle was prepared for staining as follows.
The silver-cholinesterase method of staining of Pecot-Dechavssine et al. (1979 Stain. Technol. 54:25) was used to stain the endplates, or neuromuscular junctions, of the EDL. Briefly, the muscle was fixed in situ by 1% neutral formalin in normal Ringer's solution. The muscle was then excised and placed in fresh 1% neutral formalin solution for extra 3-4 minutes. The endplates were localized with the stain described by Karnovsky et al. (1964, J. Hist. Chem. Cytochem. 12:219) for 7-15 minutes under visual control. After localization, the EDL was soaked in 5% neutral formalin solution for 20 minutes, then washed in Triton X-100 detergent for 1 hour. After the detergent step, the EDL was fixed in 80% ethanol solution for 1 hour. Finally, the endplates were impregnated with silver using 0.5% protargol solution overnight (12-30 hrs., at 37° C.).
The following day, the excess silver was reduced using a Bodian developer for 18 minutes. The muscle was rinsed in distilled water, finely teased, and mounted using a glycoglyerol mounting gel.
The endplates were observed using Olympus BH series binocular microscope at a magnification of 100× using an oil immersion objective lens. A low light sensitive video camera mounted on top of the Olympus projected the slide onto a black and white monitor. A Bioquant image digitizer with a manual optic mouse was used to determine the following parameters: (1) endplate […], (2) endplate area, (3) endplate internal branching, and (4) muscle fiber diameter. The Bioquant statistical package was used to determine statistical differences, and the data are expressed as means and standard error of the mean. The Student's t-test and the ANOVA statistical tests were performed. […]

[4] = tested on: sectioned sciatic nerve; common extensor muscle of the fingers; format: in vivo, rat; conditions: for Muscle Tetnus: Fatigue / Muscle Tetnus: Muscle Strength / Muscle Tetnus: Muscle Strength Normalized to Muscle Weight / Muscle Tetnus: Speed of Contraction / Muscle Tetnus: Speed of Relaxation / Tetanic Strength/Single Pulse Strength: 35d. p.o.p.
[5] = Group 2: Tissue col 10.0 μg/0.5 ml (topical)
[6] = Group 3: Tissue col 1.1 μg/10.5 ml (topical)
[7] = Group 4: s.c. 5 μg 1 kg/day (18 days)
[8] = 1 cm distal to the transection, 32 days p.op., 1 μg/kg per day s.c.
[9] = Region of the Transection, 32 days p.op., 1 μg/kg per day s.c.
[10] = Region of the Transection, 96 days p.op., 1 μg/kg per day s.c.
[11] = BIM 0.1 μG per animal every 48 hours, day 5, A = p < 0.025
[12] = BIM 0.1 μG per animal every 48 hours, day 5, A = p < 0.025, listed as BIM
[13] = BIM 1.0 μG per animal every 48 hours, day 5
[14] = BIM 5.0 μG per animal every 48 hours, day 5
[15] = BIM 10.0 μG per animal every 48 hours, day 5
[16] = Group 3 (topical in tissucol, lower dose)
[17] = Group 4 (s.c. 5ug.kg.day for 18 days)

C[C@@H](N)C(=O)N[C@@H](CCC(N)=O)C(=O)N[C@@H](Cc1ccc(O)cc1)C(=O)N[C@@H](Cc1ccccc1)C(=O)N[C@@H](CCCNC(=N)N)C(=O)N[C@@H](Cc1c[nH]c2ccccc12)C(=O)NCC(N)=O [BIM-22015, D--Ala--Gln--Tyr--Phe--Arg--Trp--Gly--NH2] (H-[dA]QYFRWG-NH2)
Muscle Weight 35d. p.o. [1, 5]: 67.9 µg
Muscle weight Normalized to Mean Animal Weight [1, 5]: 0.211
Muscle Weight 35d. p.o. [1, 6]: 59.7 µg
Muscle weight Normalized to Mean Animal Weight [1, 6]: 0.212
Muscle Weight 35d. p.o. [1, 7]: 73.1 µg
Muscle weight Normalized to Mean Animal Weight [1, 7]: 0.226
improvement of muscle weight normalized to mean animal weight over the control group 1 ([1]; group 4 (s.c. administration), not statistically significant): 15%
improvement of muscle weight normalized to mean animal weight over the control group 1 ([1]; groups 2 and 3 (topical in tissucol)): little improvement
effect on muscle measurements by route of administration ([1]; topical administration (groups 2 and 3)): largely ineffective
light microscopic evaluation of semi-thin sections, control vs experimental groups ([2]; 0.5 μm sections after severance and end-to-end suture): did not disclose definite differences
growth of the myelin sheath in treated animals vs controls ([2]; 1 cm distal of the transection, period from the 32nd to the 96th day): almost twice as fast
Mean values of axon diameter [2, 8]: 1.545 μm
Mean values of myelin sheath thickness [2, 8]: 0.310 μm
Mean values of axon diameter ([2]; 1 cm distal to the transection, 96 days p.op., 1 μg/kg per day s.c.): 2.078 μm
Mean values of axon diameter [2, 9]: 1.888 μm
Mean values of myelin sheath thickness [2, 9]: 0.398 μm
Mean values of axon diameter [2, 10]: 2.335 μm
Mean values of myelin sheath thickness [2, 10]: 0.551 μm
Number of myelinated axons/0.004 sq. mm [2, 10]: 62 /0.004 sq. mm
statistically significant effect on the axon diameter ([2]; on the 32nd or on the 96th day p.op.): could not be demonstrated
Endplate Morphology: Muscle Fiber Diameter ([3]; BIM 0.1 μG per animal every 48 hours, day 5): 63.6(2.72)
Endplate Morphology: Internal Branching [3, 11]: significant increase
Endplate Morphology: Perimeter [3, 11]: significant increase
Endplate Morphology: Internal Branching [3, 12]: 260.5(39.2)
Endplate Morphology: Perimeter [3, 12]: 244.3(8.63)
Endplate Morphology: Internal Branching [3, 13]: 201.6(14.2)
Endplate Morphology: Perimeter [3, 13]: 231.7(5.22)
Endplate Morphology: Muscle Fiber Diameter ([3]; BIM 1.0 μG per animal every 48 hours, day 5, C = p < 0.005): high muscle hypertrophy
Endplate Morphology: Muscle Fiber Diameter ([3]; BIM 1.0 μG per animal every 48 hours, day 5, C = p < 0.005, listed as BIM): 76.9(1.70)
Endplate Morphology: Internal Branching [3, 14]: 220.2(18.7)
Endplate Morphology: Muscle Fiber Diameter [3, 14]: 74.2(2.35)
Endplate Morphology: Perimeter ([3]; BIM 5.0 μG per animal every 48 hours, day 5, B = p < 0.050): significant increase
Endplate Morphology: Perimeter ([3]; BIM 5.0 μG per animal every 48 hours, day 5, B = p < 0.050, listed as BIM): 204.2(5.98)
Endplate Morphology: Internal Branching [3, 15]: 173.2(14.6)
Endplate Morphology: Perimeter [3, 15]: 231.7(12.2)
Endplate Morphology: Muscle Fiber Diameter ([3]; BIM 10.0 μG per animal every 48 hours, day 5, C = p < 0.005): high muscle hypertrophy
Endplate Morphology: Muscle Fiber Diameter ([3]; BIM 10.0 μG per animal every 48 hours, day 5, C = p < 0.005, listed as BIM): 82.8(3.74)
Muscle Tetnus: Fatigue ([4]; Group 2 (topical in tissucol)): 73,80%
Muscle Tetnus: Muscle Strength ([4]; Group 2 (topical in tissucol)): 61,83 g
Muscle Tetnus: Muscle Strength Normalized to Muscle Weight ([4]; Group 2 (topical in tissucol)): 0,91 g/ug
Muscle Tetnus: Speed of Contraction ([4]; Group 2 (topical in tissucol)): 2409 g/ms
Muscle Tetnus: Speed of Relaxation ([4]; Group 2 (topical in tissucol)): 2034 g/ms
Tetanic Strength/Single Pulse Strength ([4]; Group 2 (topical in tissucol)): 307,50%
Muscle Tetnus: Fatigue [4, 16]: 75,55%
Muscle Tetnus: Muscle Strength [4, 16]: 51,55 g
Muscle Tetnus: Muscle Strength Normalized to Muscle Weight [4, 16]: 0,84 g/ug
Muscle Tetnus: Speed of Contraction [4, 16]: 1737 g/ms
Muscle Tetnus: Speed of Relaxation [4, 16]: 884 g/ms
Tetanic Strength/Single Pulse Strength [4, 16]: 343,00%
Muscle Tetnus: Fatigue [4, 17]: 72,12%
Muscle Tetnus: Speed of Contraction [4, 17]: 5507 g/ms
Muscle Tetnus: Speed of Relaxation [4, 17]: 4226 g/ms
Tetanic Strength/Single Pulse Strength [4, 17]: 347,12%
fatigability of the muscle ([4]; rat, in vivo): no effect
improvement of muscle strength over control group 1 (column 2, Table 3) ([4]; rat, in vivo, sc): 30%
